Here are results for five compounds from patent US20100210668A1, “COMPOSITION AND METHOD FOR TREATMENT OR PREVENTION OF BENIGN PROSTATIC HYPERPLASIA AND LOWER URINARY TRACT SYMPTOMS” (DONG-A PHARM. CO., LTD., priority 2007, published 2010).

The test system of data set [1] is health men. Put plainly: Safety Test 1: vital signs in supine position, Tamsulosin combination. To be noted: for Diastolic blood pressure mean: the values are: Diastolic blood pressure mean. The format is in vivo, human. Here is the method: (§1) The safety evaluation was performed by observing vital signs (diastolic blood pressure, pulse rate, body temperature), clinical laboratory testing, electrocardiogram, adverse reactions such as subjective symptom and objective symptom.

The nature of data set [2]: Safety Test 2: pharmacokinetic parameters. The settings on record: male, human, plasma. The format is in vivo. Here is the method: The safety evaluation was performed by observing vital signs (diastolic blood pressure, pulse rate, body temperature), clinical laboratory testing, electrocardiogram, adverse reactions such as subjective symptom and objective symptom. In addition, the effect of drug-drug interaction on pharmacokinetics of the pyrazolopyrimidinone was observed.

A short description of data set [3]: Physicochemical properties (pKa, solubility).
A short description of data set [4]: Pharmacokinetic characteristics in the body. The format is in vivo.
Data set [5] is described as follows: Safety Test 1: pharmacokinetics of the pyrazolopyrimidinone. Format: in vivo. To be noted: male, human, plasma. Here is the method:
The safety evaluation was performed by observing vital signs (diastolic blood pressure, pulse rate, body temperature), clinical laboratory testing, electrocardiogram, adverse reactions such as subjective symptom and objective symptom. In addition, the effect of drug interaction on pharmacokinetics of the pyrazolopyrimidinone was observed.

Data set [6] concerns health men. The data set can be described thus: Safety Test 2: vital signs in supine position, Silodosin combination. The format is in vivo, human. To be noted: for Diastolic blood pressure mean: the values are: Diastolic blood pressure mean. Here is the method:
as §1

Data set [7] relates to smooth muscle of rat prostate. Put plainly: Relaxation of contracted rat prostatic tissue in organ bath, formula (I) and Silodosin. Format: cell-based, Sprague-Dawley rat. Here is the method:
Male Sprague-Dawley rat with 300-400 g of body weight was sacrificed and the prostate was extracted and transferred to Krebs-Henseleit buffer kept cold. The dorsolateral lobes of prostatic tissue were transected to separate prostatic tissue gland with size of 2×10 mm (4 tissues per a rat). The separated tissues were transferred to organ bath where 95% O2, and 5% CO2 were emitted and Krebs-Henseleit buffer (37° C.) was contained, both ends of the tissue gland were fixed to the bath floor and force transducer connected to polygraph(Grass Instruments) respectively.
Each tissue was stabilized for 1 hour, and then treated by 10^−5M carbachol to induce the contraction of prostatic tissue.
In Table 3, data were obtained by using four (4) tissue glands were used for each concentration of the drug, and the numerical value is mean ± standard error of the percentage of contracting degree (inverse proportion to relaxation degree).

The test system of data set [8] is smooth muscle of rat prostate. Put plainly: Relaxation of phenylephrine-contracted rat prostatic tissue in organ bath, formula (I) and Tamsulosin. The format is cell-based, Sprague-Dawley rat. Here is the method:
Male Sprague-Dawley rat with 300-400 g of body weight was sacrificed and the prostate was extracted and transferred to Krebs-Henseleit buffer kept cold. The dorsolateral lobes of prostatic tissue were transected to separate prostatic tissue gland with size of 2×10 mm (4 tissues per a rat). The separated tissues were transferred to organ bath where 95% O2, and 5% CO2 were emitted and Krebs-Henseleit buffer (37° C.) was contained, both ends of the tissue gland were fixed to the bath floor and force transducer connected to polygraph(Grass Instruments) respectively. Each tissue was stabilized under 0.2 standard tension for 1 hour, and then treated by 1 μM of phenylephrine to induce the contraction of prostatic tissue. […] In Table 1, data were obtained by using four (4) tissue glands were used for each concentration of the drug, and the numerical value is mean ±standard error of the percentage of contracting degree (inverse proportion to percentage of relaxation degree).

The next data set addresses PDE 5 (Homo sapiens, UniProt O76074). The data set can be described thus: PDE 5 inhibition. Format: biochemical.
In data set [9] the test system is smooth muscle of rat bladder. The data set can be described thus: Relaxation of carbachol-contracted rat bladder tissue in organ bath. The format is cell-based, Sprague-Dawley rat. The settings on record: for percentage of relaxation degree: L-NAME or Tamsulosin 10^−4M where combined.
For a further data set, the system named is patients. The settings on record: cited from earlier work.
The mark [10] stands for this setting: Group B: placebo + the pyrazolopyrimidinone.
The mark [11] stands for this setting: Group D: administered with Tamsulosin.

Structures are written as SMILES. Where two headings read alike, the source gives them in different places.

A word on the Cmax: it is the peak of the concentration-time curve. As a reminder, the Tmax is the time from dosing to the highest level. What is called half-life is the time needed for the level to fall by half in the phase considered.

As to `CCCOc1ccc(S(=O)(=O)NCCC2CCCN2C)cc1-c1nc2c(CCC)nn(C)c2c(=O)[nH]1` (stereo not drawn) [Compound of formula (I), 5-[2-propyloxy-5-(1-methyl-2-pyrolidinylethylamidosulphonyl)phenyl]-1-methyl-propyl-1,6-dihydro-7H-pyrazolo (4,3-d)pyrimidin-7-one], the results for the Pulse rate mean with health men [1] and in the data set on health men [6] were 60.2 and 61.4, respectively. Besides, the Diastolic blood pressure mean came out at 61.6 mmHg with health men [1] and 62.2 mmHg in the data set with health men [6]. For the same compound, the AUC(0-inf) was found to be 4820 ± 1320 ng·h/mL in [2] (Group A: placebo + the pyrazolopyrimidinone, read-out: AUCinf Ud); 4940 ± 1260 ng·h/mL in data set [2] (Group C: Silodosin + the pyrazolopyrimidinone, read-out: AUCinf Ud); 4730 ± 1260 ng·h/mL in data set [5] (setting [10]); 4910 ± 1260 ng·h/mL in data set [5] (setting [11]). Moreover, the maximum concentration (Cmax) in data set [2] (Group A: placebo + the pyrazolopyrimidinone, read-out: Cmax Ud) came out at 627 ± 158 ng/mL; in [2] (Group C: Silodosin + the pyrazolopyrimidinone, read-out: Cmax Ud) it was 660 ± 196 ng/mL; in [5] (setting [10]), 617 ± 169 ng/mL; in data set [5] (setting [11]), 624 ± 200 ng/mL. In addition, the Tmax in data set [2] (Group A: placebo + the pyrazolopyrimidinone, read-out: Tmax (h) Ud) stood at 1.5 h; in data set [2] (Group C: Silodosin + the pyrazolopyrimidinone, read-out: Tmax (h) Ud), 1.3 h; in [5] (setting [10]) it was 1.5 h; in [5] (setting [11]), 1.1 h. Besides, the pKa1 entry in data set [3] is “about 6.5”. The pKa2 result in [3] was “about 12.5”. For the same compound, in [3], the solubility result was “improved solubility”. Also, in [3] (acetic acid, methanol or chloroform), the “solubility to acetic acid, methanol or chloroform” value is given as “high solubility”. For the same compound, the solubility to water result in data set [3] (water) is listed as “low solubility”. Besides, the “half life in the body compared with the sildenafil-type citrate and vardenafil-type hydrochloride named” value in [4] (in the body) was “three times longer half life”. The absorption result in data set [4] (in vivo) was “rapid absorption”. Further, the bioavailability entry in data set [4] (in vivo) is recorded as “high bioavailability”. Further, the “distribution volume in the body” value in data set [4] (in vivo) is “high distribution volume”. The half-life was 9.7 ± 1.7 h in data set [5] (setting [10]) and 9.9 ± 2.3 h in [5] (setting [11]). Further, the “Contraction degree (%)” value in data set [7] (Compound of formula (I) 3 μM, Silodosin 0 nM) amounted to 92.6 ± 2.2%; in data set [7] (Compound of formula (I) 10 μM, Silodosin 0 nM), 77.1 ± 2.5%; in data set [7] (Compound of formula (I) 30 μM, Silodosin 0 nM) it was 62.2 ± 3.1%; in [8] (Compound of formula (I) 3 μM, Tamsulosin 0 nM, 1 μM phenylephrine) it was 92.6 ± 2.2%; in [8] (Compound of formula (I) 10 μM, Tamsulosin 0 nM), 77.1 ± 2.5%; in data set [8] (Compound of formula (I) 30 μM, Tamsulosin 0 nM), 62.2 ± 3.1%. Moreover, the “inhibition of PDE 5” value at PDE 5 is reported as “inhibits PDE 5 strongly”. The “percentage of relaxation degree” value in data set [9] (Compound of formula (I) 10^−4M) is reported as 17.4 ± 3.7%; in data set [9] (Compound of formula (I) 10^−4M, listed as pyrazolopyrimidinone of formula (I)), “about 17.4%”; in data set [9] (Compound of formula (I) 10^−5M) it was 7.2 ± 1.6%; in data set [9] (Compound of formula (I) 10^−6M), 2.0 ± 1.1%; in data set [9] (Compound of formula (I) 10^−7M) it was 0.0 ± 0.0%; in data set [9] (Compound of formula (I) 10^−8M, 10^−5M carbachol) it was 0.0 ± 0.0%. Also, in [9] (administered alone), the “concentration at which the relaxation effect began to be represented” value is recorded as 10^−6 M.
As for `C[C@H](Cc1cc2c(c(C(N)=O)c1)N(CCCO)CC2)NCCOc1ccccc1OCC(F)(F)F` [Silodosin, reference compound], the AUC(0-inf) is 110 ± 17.6 ng·h/mL in [2] (AUCinf Silodosin, Group B: placebo + Silodosin) and 132 ± 25.2 ng·h/mL in [2] (AUCinf Silodosin, Group C: Silodosin + the pyrazolopyrimidinone). The maximum concentration (Cmax) in data set [2] (Cmax Silodosin, Group B: placebo + Silodosin) turned out to be 31.1 ± 7.2 ng/mL; in [2] (Cmax Silodosin, Group C: Silodosin + the pyrazolopyrimidinone) it was 35.2 ± 7.8 ng/mL. Also, the time to peak (Tmax) amounted to 1.4 h in [2] (Tmax (h) Silodosin, Group B: placebo + Silodosin) and 1.7 h in data set [2] (Tmax (h) Silodosin, Group C: Silodosin + the pyrazolopyrimidinone). In addition, the Pulse rate mean in the data set on health men [6] came out at 64.2. Further, in the data set with health men [6], the Diastolic blood pressure mean is 62.3 mmHg. Also, the “Contraction degree (%)” value in [7] (Compound of formula (I) 0 μM, Silodosin 0.1 nM) was 90.8 ± 1.4%; in data set [7] (Compound of formula (I) 0 μM, Silodosin 1 nM), 82.0 ± 1.7%; in data set [7] (Compound of formula (I) 0 μM, Silodosin 10 nM), 46.9 ± 1.6%.
With `CCOc1ccccc1OCCN[C@H](C)Cc1ccc(OC)c(S(N)(=O)=O)c1` [Tamsulosin, (R)-5-(2-(2-(2-ethoxyphenoxy)ethylamino)propyl)-2-methoxy benzensulfonamide, reference compound], the Pulse rate mean in the data set with health men [1] is recorded as 57.7. Besides, the Diastolic blood pressure mean in the data set with health men [1] stood at 63 mmHg. Besides, in the data set on patients (administered in combination of PDE 5 inhibitors), the “side effect in combination of PDE 5 inhibitors” value is “orthostatic hypotension”. In addition, the “Contraction degree (%)” value in data set [8] (Compound of formula (I) 0 μM, Tamsulosin 0.25 nM) is given as 90.8 ± 1.4%; in data set [8] (Compound of formula (I) 0 μM, Tamsulosin 1 nM), 78.8 ± 2.0%; in data set [8] (Compound of formula (I) 0 μM, Tamsulosin 4 nM), 43.6 ± 4.2%.
With `COc1cc2nc(N3CCN(C(=O)C4CCCO4)CC3)nc(N)c2cc1OC` (stereo not drawn) [Terazocin], the “side effect in combination of PDE 5 inhibitors” value in the data set on patients (human, in vivo) is “orthostatic hypotension”.
`CCCc1nc(C)c2c(=O)[nH]c(-c3cc(S(=O)(=O)N4CCN(CC)CC4)ccc3OCC)nn12` [Vardenafil]: the “blood pressure effect in combination of α-adrenergic receptor antagonist” value in the data set on patients (combination with α-adrenergic receptor antagonist) is “some patients shows low blood pressure”.
